Measurements as given in ChEMBL document CHEMBL5653631, “A Potent and Selective ULK1 Inhibitor Suppresses Autophagy and Sensitizes Cancer Cells to Nutrient Stress” (iScience, 2018).

Assays:
[1] = target: T1, Tyrosine-protein kinase ITK/TSK (Homo sapiens) (UniProt Q08881); experiment: Inhibition of human recombinant ITK at 500 nM in presence of ATP by radiometric assay relative to control
T1 sequence (whole entry): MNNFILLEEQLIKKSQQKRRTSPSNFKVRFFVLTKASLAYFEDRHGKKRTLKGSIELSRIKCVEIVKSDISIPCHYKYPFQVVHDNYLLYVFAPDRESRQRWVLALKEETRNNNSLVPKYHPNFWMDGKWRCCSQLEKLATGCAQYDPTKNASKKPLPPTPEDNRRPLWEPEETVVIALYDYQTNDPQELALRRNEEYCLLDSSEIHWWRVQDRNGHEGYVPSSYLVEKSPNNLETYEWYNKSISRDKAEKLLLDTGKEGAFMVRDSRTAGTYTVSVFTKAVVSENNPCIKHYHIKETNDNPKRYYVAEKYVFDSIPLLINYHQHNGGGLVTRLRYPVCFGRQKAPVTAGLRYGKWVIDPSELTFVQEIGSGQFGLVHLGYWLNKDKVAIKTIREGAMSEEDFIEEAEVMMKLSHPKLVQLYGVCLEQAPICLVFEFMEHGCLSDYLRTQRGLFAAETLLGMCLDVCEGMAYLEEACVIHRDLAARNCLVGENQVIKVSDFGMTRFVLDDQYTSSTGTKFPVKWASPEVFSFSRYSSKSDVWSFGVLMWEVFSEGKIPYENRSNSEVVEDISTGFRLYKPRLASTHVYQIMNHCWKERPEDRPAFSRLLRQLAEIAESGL

[2] = target: T2, Tyrosine-protein kinase JAK3 (Homo sapiens) (UniProt P52333); experiment: Inhibition of human recombinant JAK3 at 500 nM in presence of ATP by radiometric assay relative to control
T2 sequence (whole entry): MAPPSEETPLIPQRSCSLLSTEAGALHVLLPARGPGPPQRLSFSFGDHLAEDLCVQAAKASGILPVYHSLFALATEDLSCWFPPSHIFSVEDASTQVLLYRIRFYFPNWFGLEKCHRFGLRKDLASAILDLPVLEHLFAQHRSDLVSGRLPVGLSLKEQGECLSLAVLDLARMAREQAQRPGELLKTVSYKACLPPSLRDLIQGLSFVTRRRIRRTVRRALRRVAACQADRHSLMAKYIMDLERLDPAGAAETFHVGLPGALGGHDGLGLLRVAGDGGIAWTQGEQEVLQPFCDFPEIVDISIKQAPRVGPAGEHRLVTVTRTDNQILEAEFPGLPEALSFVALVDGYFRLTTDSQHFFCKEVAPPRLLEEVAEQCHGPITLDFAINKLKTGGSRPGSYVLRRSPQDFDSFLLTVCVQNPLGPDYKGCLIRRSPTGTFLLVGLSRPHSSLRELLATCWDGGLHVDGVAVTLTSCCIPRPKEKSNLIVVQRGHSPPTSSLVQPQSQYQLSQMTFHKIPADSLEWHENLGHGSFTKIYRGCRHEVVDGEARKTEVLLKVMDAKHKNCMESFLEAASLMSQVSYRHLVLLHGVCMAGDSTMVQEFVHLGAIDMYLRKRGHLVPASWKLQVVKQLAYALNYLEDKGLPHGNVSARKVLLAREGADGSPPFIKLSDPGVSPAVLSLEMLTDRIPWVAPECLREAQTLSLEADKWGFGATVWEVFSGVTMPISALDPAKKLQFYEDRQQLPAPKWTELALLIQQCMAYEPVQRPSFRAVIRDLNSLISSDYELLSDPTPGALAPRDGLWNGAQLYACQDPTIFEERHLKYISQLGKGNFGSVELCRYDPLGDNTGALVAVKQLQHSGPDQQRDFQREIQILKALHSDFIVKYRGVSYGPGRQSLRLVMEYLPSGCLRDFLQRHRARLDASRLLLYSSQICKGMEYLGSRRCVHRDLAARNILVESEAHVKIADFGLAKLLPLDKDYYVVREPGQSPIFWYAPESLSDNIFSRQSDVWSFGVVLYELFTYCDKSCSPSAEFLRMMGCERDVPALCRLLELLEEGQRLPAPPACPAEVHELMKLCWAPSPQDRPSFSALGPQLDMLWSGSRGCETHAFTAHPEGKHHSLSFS

[3] = target: Macrophage-stimulating protein receptor (Homo sapiens) (UniProt Q04912); experiment: Inhibition of human recombinant RON at 15 nM related to control ULK1
Sequence of Macrophage-stimulating protein receptor (Homo sapiens) (Q04912 25-304 limits assumed): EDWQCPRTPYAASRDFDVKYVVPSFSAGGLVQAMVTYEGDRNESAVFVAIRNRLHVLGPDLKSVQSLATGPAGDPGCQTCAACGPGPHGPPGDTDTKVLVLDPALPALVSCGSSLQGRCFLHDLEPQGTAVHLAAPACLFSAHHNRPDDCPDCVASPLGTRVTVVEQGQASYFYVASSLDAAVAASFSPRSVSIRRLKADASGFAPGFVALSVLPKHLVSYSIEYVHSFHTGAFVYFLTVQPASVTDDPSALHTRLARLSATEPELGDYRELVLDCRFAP
Sequence of Macrophage-stimulating protein receptor (Homo sapiens) (Q04912 310-1400 limits assumed): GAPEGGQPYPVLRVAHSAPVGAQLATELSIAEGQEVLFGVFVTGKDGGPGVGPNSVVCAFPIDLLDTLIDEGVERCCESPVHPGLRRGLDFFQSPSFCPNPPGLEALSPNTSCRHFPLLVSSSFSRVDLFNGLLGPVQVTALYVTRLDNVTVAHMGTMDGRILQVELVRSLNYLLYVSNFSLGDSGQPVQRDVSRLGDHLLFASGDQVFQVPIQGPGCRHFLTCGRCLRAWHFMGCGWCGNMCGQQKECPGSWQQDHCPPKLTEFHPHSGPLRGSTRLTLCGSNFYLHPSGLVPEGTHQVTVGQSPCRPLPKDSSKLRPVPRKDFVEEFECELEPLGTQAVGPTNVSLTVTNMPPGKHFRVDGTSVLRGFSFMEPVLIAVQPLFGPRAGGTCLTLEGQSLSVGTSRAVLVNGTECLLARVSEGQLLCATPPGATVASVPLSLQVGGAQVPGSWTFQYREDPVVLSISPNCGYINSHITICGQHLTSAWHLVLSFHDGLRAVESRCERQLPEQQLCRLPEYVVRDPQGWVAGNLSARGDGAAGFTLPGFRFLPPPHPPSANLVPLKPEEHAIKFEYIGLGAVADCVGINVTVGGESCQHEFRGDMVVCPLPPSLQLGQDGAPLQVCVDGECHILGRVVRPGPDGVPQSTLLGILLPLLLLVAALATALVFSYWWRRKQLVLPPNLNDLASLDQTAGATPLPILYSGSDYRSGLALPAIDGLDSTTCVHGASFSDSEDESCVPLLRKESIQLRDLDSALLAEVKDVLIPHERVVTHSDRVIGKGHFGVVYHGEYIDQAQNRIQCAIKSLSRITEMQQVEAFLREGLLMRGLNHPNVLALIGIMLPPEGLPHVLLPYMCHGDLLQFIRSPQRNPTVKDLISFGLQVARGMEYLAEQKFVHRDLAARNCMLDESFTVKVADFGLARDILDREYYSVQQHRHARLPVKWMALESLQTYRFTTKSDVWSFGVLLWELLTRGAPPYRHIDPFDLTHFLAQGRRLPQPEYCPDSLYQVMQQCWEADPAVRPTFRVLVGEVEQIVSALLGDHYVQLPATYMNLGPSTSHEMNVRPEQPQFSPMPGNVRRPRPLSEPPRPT

[4] = target: Cyclin-dependent kinase-like 1 (Homo sapiens) (UniProt Q00532); experiment: Inhibition of human recombinant CDKL1 at 15 nM related to control ULK1
Sequence of Cyclin-dependent kinase-like 1 (Homo sapiens) (Q00532 whole entry): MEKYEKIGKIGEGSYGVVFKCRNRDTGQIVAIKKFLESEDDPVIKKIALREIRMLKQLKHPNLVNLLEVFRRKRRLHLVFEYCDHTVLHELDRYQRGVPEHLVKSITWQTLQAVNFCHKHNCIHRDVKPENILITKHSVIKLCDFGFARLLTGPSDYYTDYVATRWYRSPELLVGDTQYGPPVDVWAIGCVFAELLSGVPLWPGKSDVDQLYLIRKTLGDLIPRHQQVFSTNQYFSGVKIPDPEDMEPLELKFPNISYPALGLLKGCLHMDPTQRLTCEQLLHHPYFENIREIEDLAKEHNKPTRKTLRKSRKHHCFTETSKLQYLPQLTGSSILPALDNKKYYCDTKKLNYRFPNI

[5] = target: Cell division cycle 7-related protein kinase (Homo sapiens) (UniProt O00311); experiment: Inhibition of human recombinant CDC7 at 15 nM in presence of ATP by radiometric assay relative to control
Sequence of Cell division cycle 7-related protein kinase (Homo sapiens) (O00311 whole entry, looked up): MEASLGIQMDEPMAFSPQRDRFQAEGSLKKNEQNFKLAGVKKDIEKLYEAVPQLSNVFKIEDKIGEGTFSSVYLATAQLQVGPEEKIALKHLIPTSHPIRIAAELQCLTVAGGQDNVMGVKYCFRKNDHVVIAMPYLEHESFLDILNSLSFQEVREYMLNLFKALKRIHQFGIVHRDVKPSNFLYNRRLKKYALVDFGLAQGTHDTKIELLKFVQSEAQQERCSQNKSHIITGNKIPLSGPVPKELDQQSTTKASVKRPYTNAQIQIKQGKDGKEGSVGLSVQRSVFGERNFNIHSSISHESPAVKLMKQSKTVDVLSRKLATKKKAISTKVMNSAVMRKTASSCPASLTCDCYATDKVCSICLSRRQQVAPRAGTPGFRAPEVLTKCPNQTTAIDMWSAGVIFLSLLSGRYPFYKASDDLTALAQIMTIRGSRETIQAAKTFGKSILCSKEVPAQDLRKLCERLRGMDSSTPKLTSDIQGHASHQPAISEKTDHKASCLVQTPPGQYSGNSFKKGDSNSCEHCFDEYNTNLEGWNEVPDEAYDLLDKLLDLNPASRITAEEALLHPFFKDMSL

[6] = target: T3, Ephrin type-A receptor 1 (Homo sapiens) (UniProt P21709); experiment: Inhibition of human recombinant EphA1 at 15 nM in presence of ATP by radiometric assay relative to control
T3 sequence (whole entry): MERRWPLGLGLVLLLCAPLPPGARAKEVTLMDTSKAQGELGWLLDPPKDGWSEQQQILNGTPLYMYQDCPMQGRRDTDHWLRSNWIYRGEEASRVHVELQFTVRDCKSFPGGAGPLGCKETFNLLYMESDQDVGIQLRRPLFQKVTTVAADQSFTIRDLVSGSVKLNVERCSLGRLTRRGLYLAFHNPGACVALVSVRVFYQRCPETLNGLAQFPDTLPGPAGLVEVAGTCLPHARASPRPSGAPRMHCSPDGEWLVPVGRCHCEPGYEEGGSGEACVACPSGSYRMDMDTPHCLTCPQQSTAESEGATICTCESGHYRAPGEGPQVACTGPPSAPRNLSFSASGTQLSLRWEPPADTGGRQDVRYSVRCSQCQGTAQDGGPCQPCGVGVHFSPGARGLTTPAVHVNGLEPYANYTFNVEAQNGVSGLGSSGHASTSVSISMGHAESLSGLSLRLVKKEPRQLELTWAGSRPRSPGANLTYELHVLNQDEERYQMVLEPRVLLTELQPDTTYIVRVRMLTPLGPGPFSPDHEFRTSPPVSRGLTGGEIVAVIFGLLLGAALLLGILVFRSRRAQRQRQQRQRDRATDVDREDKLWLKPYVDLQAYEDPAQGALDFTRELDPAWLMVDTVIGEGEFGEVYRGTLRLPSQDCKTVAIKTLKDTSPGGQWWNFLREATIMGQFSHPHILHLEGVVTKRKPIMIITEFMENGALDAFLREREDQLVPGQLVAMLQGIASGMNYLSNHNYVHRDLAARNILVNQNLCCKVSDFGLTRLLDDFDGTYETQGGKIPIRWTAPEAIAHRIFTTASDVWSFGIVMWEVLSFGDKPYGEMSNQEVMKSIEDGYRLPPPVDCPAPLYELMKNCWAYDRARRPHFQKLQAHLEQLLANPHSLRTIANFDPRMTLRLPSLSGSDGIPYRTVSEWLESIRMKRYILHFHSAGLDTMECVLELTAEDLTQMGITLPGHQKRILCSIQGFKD

Row | inhibition [1] | inhibition [2] | fold change (FC) [3] | fold change (FC) [4] | inhibition [5] | inhibition [6] | Structure (SMILES)
1 | 1% | 21% | – | – | – | – | CNC(=O)c1ccccc1Oc1nc(Nc2cc(OC)c(OC)c(OC)c2)ncc1Br
2 | – | – | 0.02 | 0.27 | 8% | 0% | CC(C)[C@H](NC(=O)c1cc(-c2cnn3cc(-c4ccc(OCCN5CCCCC5)cc4)cnc23)cs1)C(F)(F)F
